This data set is described as follows: Thermo Scientific Hypersil GOLD aQ, 100 × 2.1 mm, 1.9 µm, 30 °C, 0.3 mL/min, estimated dead time 0.73 min; A: water + 0.01% formic acid + 4 mM ammonium formate; B: methanol + 0.01% formic acid + 4 mM ammonium formate; gradient (min/%B) 0/5 1/5 8/100 12/100. As to conditions: stereoisomer not certain.
Turning to `COC(=O)C=C(C)OP(=O)(OC)OC`, the LC retention time was 7.66 min.

`COP(=S)(OC)Oc1ccc(SC)c(C)c1`: the LC retention time was 10.2 min.

With `CCNc1nc(NC(C)(C)C)nc(SC)n1`, the LC retention time is 9.65 min. `CNC(=O)ON=C(C)SC`: the LC retention time is 6.05 min. Under `CCC(C)C1OC2(C=CC1C)CC1CC(CC=C(C)C(OC3CC(OC)C(OC4CC(OC)C(NC)C(C)O4)C(C)O3)C(C)C=CC=C3COC4C(O)C(C)=CC(C(=O)O1)C34O)O2` (configuration not stated) stands 11.9 min. For `COP(=S)(OC)Oc1ccc([N+](=O)[O-])cc1`, the LC retention time was 9.96 min. Consider `CCOc1ccc2c(c1)C(C)=CC(C)(C)N2`, for which the LC retention time is 9.07 min. Regarding `CCCOC(=O)NCCCN(C)C`, the LC retention time is 5.17 min. As to `CCOP(=O)(NC(C)C)Oc1ccc(SC)c(C)c1` (configuration not stated), the LC retention time is 9.99 min. In the case of `CC(C)OC(=O)Nc1ccccc1`, the LC retention time was 8.61 min. For the compound `CCS(=O)(=O)c1cccnc1S(=O)(=O)NC(=O)Nc1nc(OC)cc(OC)n1`, the LC retention time is 8.71 min.

Turning to `CNC(=O)Oc1cc(C)c(S(C)=O)c(C)c1` (configuration not stated), the LC retention time is 7.09 min. Under `CNC(=O)ON=C(SC)C(=O)N(C)C` stands 5.75 min. `CNC(=O)ON=C(C)C(C)S(C)=O` (configuration not stated): the LC retention time was 3.06 min. `Cc1cc(C2CC2)nc(Nc2ccccc2)n1`: the LC retention time was 10.3 min. Under `COc1cc2c(c3oc(=O)c4c(c13)CCC4=O)C1C=COC1O2` (configuration not stated) stands 8.44 min; under `CNC(=O)ON=C(C)C(C)SC` (configuration not stated), 7.89 min; under `CCCCN(CCCC)SN(C)C(=O)Oc1cccc2c1OC(C)(C)C2`, 11.1 min.

For the compound `CC(C)N1C(=O)c2ccccc2NS1(=O)=O`, the LC retention time is 8.26 min. For `Cc1nnc(-c2ccccc2)c(=O)n1N`, the LC retention time was 7.23 min. As to `CNC(=O)ON=C(CSC)C(C)(C)C`, the LC retention time is 8.21 min. As for `CCOP(=S)(OCC)SCSC(C)(C)C`, the LC retention time was 7.2 min.

Consider `CCS(=O)CCSP(=O)(OC)OC` (configuration not stated), for which the LC retention time is 6.04 min. `CCOP(=S)(OCC)Oc1cc(C)nc(C(C)C)n1`: the LC retention time is 10.2 min.

Regarding `CNc1nc(NC(C)C)nc(SC)n1`, the LC retention time was 8.62 min.

For `CCc1ccc(C(=O)NN(C(=O)c2cc(C)cc(C)c2)C(C)(C)C)cc1`, the LC retention time is 9.99 min. Under `c1ccc2[nH]c(-c3cscn3)nc2c1` stands 6.96 min.
